Test system: surface receptors of the a-yeast strain
Assay: Shmoo effect positive control with purified α-factor
Assay type: cell-based, Saccharomyces cerevisiae
Conditions: BY4741 MATa p423GPD-AR1, p426PGK-MFα1; purified α-factor added
Procedure: The recognition of the α-factor (yeast pheromone) by surface receptors effects inter alia a directed growth (shmoo effect) of the yeast cells toward the source of the pheromone. Under natural conditions this serves for subsequent fusion with the yeast cell of the opposite mating type.
To the positive control purified α-factor is added. […] Based on this control, the androgen-independent induction of the yeast cells can be checked.

α-factor
directed growth (shmoo effect) of the yeast cells: Directed growth of the yeast cells is observed

Source: patent US20110256579A1, “Method for Verifying and/or Identifying Hormonally Effective Substances” (TECHNISCHE UNIVERSITAET DRESDEN, priority 2008, published 2011)
